{
  "source": "patent US11236120B2",
  "about": "“Azithromycin derivatives with epithelial barrier enhancement properties” (EpiEndo Pharmaceuticals ehf, priority 2015, dated 2022)",
  "key": {"[1]": {"test_system": "Bacillus megaterium (BM-11)", "assay": "Assay 1: antimicrobial broth dilution on microtiter plates, Bacillus megaterium", "format": "cell-based", "settings": "Priestia megaterium", "description": "The antimicrobial activity of each Example compound was investigated. The Minimal Inhibitory Concentration (MIC—the minimal dose required to inhibit bacterial growth) and the Minimal Bactericidal Concentration (MBC—the minimal dose required to kill bacteria) were measured for each compound for Streptococcus pneumoniae (ATCC49619), Staphylococcus aureus (ATCC29213), Bacillus megaterium (BM-11) and Escherichia coli (D-21) using an antimicrobial broth dilution method on microtiter plates. The Minimal Inhibitory Concentration (MIC) was also measured for each example compound and azithromycin with Mycobacterium avium complex (MAC). […]\nThe Minimal Inhibitory Concentration (MIC—the minimal dose required to inhibit bacterial growth) and the Minimal Bactericidal Concentration (MBC—the minimal dose required to kill bacteria) were measured for each compound for Streptococcus pneumoniae (ATCC49619), Staphylococcus aureus (ATCC29213), Bacillus megaterium (BM-11) and Escherichia coli (D-21) using an antimicrobial broth dilution method on 96 well microtiter plates. […]\nAfter addition of the bacterial solution, the plates were incubated at 35° C. for 18 h. The bacterial growth of each well was then recorded and then the Minimal Inhibitory Concentration (MIC) and Minimal Bactericidal Concentration ([…]) were determined."}, "Escherichia coli (D-21)": {"test_system": "Escherichia coli (D-21)", "assay": "Assay 1: antimicrobial broth dilution on microtiter plates, Escherichia coli", "format": "cell-based", "settings": "E. coli (D-21)", "description": "The antimicrobial activity of each Example compound was investigated. The Minimal Inhibitory Concentration (MIC—the minimal dose required to inhibit bacterial growth) and the Minimal Bactericidal Concentration (MBC—the minimal dose required to kill bacteria) were measured for each compound for Streptococcus pneumoniae (ATCC49619), Staphylococcus aureus (ATCC29213), Bacillus megaterium (BM-11) and Escherichia coli (D-21) using an antimicrobial broth dilution method on microtiter plates. The Minimal Inhibitory Concentration (MIC) was also measured for each example compound and azithromycin with Mycobacterium avium complex (MAC). Mycobacterium avium complex (MAC) is a term that covers both M. avium and M. intracellulare.\nThe antibacterial activities of example compounds 1 to 31 and azithromycin were investigated. The Minimal Inhibitory Concentration (MIC—the minimal dose required to inhibit bacterial growth) and the Minimal Bactericidal Concentration (MBC—the minimal dose required to kill bacteria) were measured for each compound for Streptococcus pneumoniae (ATCC49619), Staphylococcus aureus (ATCC29213), Bacillus megaterium (BM-11) and Escherichia coli (D-21) using an antimicrobial broth dilution method on 96 well microtiter plates.\nA 256 μg/ml stock solution of each compound was prepared in Mueller-Hinton Broth and then further diluted by a 2-fold serial dilution. […]"}, "Mycobacterium avium": {"test_system": "Mycobacterium avium", "assay": "Assay 2: STC colorimetric microplate assay, M. avium", "format": "cell-based"}, "[2]": {"assay": "Stability in human plasma", "format": "in vitro ADME", "settings": "room temperature", "description": "Stability in Mouse and Human Plasma\nThe stability of the compounds in mouse and human plasma was performed using protein precipitation as sample clean-up and HPLC-MS detection. The plasma stability studies of the compounds was performed at room temperature for up to 4 hours. A stock solution of […] in DMSO was prepared for each compound. For the plasma stability samples, 100 μL of the stock solution was diluted with 3.9 mL of either mouse or human plasma to a final concentration of […]. The plasma was left to equilibrate for 10 minutes at room temperature before the first analysis. For each analyzed time point ([…]) a 100 μL aliquot of the plasma was removed and protein precipitation (PPT) was performed on the aliquot by adding 900 μL of (ACN:DMSO) 95:5. The precipitated sample was shaken for 60 seconds and then centrifuged. The supernatant was transferred to an HPLC vial and analyzed using HPLC-MS. The chromatographic signal area of the samples at the different time points were then compared against each other, by setting the initial analysis at t=0 min as 100% and then calculating the %-value for each subsequent time point.\nThe chromatographic separation was performed on a Waters HPLC-MS system using a 50×2.1 mm×Bridge C18 column and a gradient elution of Water with 0.1% formic acid and acetonitrile with 0.1% formic acid. The analytes were analyzed in positive electro-spray mode using the (M+H)^+ in single ion recording."}, "patients with COPD": {"test_system": "patients with COPD", "settings": "double blinded clinical trials; cited from earlier work"}, "[3]": {"test_system": "epithelial cells in vitro ALI culture", "settings": "cited from earlier work"}},
  "data": [
    {"molecule": "CC[C@H]1OC(=O)[C@H](C)[C@@H](O[C@H]2C[C@@](C)(OC)[C@@H](O)[C@H](C)O2)[C@H](C)[C@@H](O[C@@H]2O[C@H](C)C[C@H](N(C)C)[C@H]2O)[C@](C)(O)C[C@@H](C)CN(C)[C@H](C)[C@@H](O)[C@]1(C)O", "note": "[Azithromycin, (2R,3S,4R,5R,8R,10R,11R,12S,13S,14R)-11-[(2S,3R,4S,6R)-4-(dimethylamino)-3-hydroxy-6-methyl-tetrahydropyran-2-yl]oxy-2-ethyl-3,4,10-trihydroxy-13-[(2R,4R,5S,6S)-5-hydroxy-4-methoxy-4,6-dimethyl-tetrahydropyran-2-yl]oxy-3,5,6,8,10,12,14-heptamethyl-1-oxa-6-azacyclopentadecan-15-one]", "values": [
      {"measurement": "MBC", "setting": "[1]", "result": 2, "unit": "µg/mL"},
      {"measurement": "MIC", "setting": "[1]", "result": 1, "unit": "µg/mL"},
      {"measurement": "MBC", "setting": "Escherichia coli (D-21)", "result": 32, "unit": "µg/mL"},
      {"measurement": "MIC", "setting": "Escherichia coli (D-21)", "result": 4, "unit": "µg/mL"},
      {"measurement": "MIC", "setting": "Mycobacterium avium; Mycobacterium avium S1002170205", "result": 16, "unit": "µg/mL"},
      {"measurement": "MIC", "setting": "Mycobacterium avium; Mycobacterium avium S1003050114", "result": 32, "unit": "µg/mL"},
      {"measurement": "Degradation in Human Plasma at RT", "setting": "[2]", "result": 6, "unit": "% per hour"},
      {"measurement": "reduction of the hospitalisation rate and disease related exacerbations", "setting": "patients with COPD", "result": 30, "unit": "%"},
      {"measurement": "effect on transepithelial resistance (TER) and cellular processing of tight junctions", "setting": "[3]", "result": "increasing transepithelial resistance"}
    ]}
  ]
}
